In patent publication US7767398B2, “Means and methods for diagnosing and treating affective disorders” (Affectis Pharmaceuticals AG, priority 2003, dated 2010):

Columns and labels:
human P2X7R = target: T1, human P2X7R (Homo sapiens, UniProt Q99572); assay: Calcium entry in HT-22 cells overexpressing human P2X7R (Fluo-4 AM); type: cell-based; conditions: 20 μM BzATP or 50 μM tenidap
T1 construct: expressed in transfected cells
T1 sequence (Q99572 1-595): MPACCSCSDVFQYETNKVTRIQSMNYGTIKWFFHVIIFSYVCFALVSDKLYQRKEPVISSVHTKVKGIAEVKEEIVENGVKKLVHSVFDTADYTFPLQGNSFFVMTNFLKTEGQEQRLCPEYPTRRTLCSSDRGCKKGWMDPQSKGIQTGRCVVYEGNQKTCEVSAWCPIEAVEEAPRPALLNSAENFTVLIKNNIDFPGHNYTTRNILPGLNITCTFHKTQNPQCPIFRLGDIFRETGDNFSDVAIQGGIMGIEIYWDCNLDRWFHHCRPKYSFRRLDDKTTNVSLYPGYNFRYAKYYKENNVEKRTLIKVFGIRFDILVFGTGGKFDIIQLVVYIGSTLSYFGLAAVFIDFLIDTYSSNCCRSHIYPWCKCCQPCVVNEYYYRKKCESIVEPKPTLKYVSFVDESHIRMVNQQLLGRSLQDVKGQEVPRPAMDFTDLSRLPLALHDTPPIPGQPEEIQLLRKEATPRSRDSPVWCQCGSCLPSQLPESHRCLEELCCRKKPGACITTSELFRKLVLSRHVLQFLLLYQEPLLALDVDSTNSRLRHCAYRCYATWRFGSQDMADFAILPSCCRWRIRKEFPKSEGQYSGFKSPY
Text: Yet another method for identifying P2X7R agonists was devised by generating a immortalised mouse cell line that overexpresses the human P2X7R gene under the control of the human cytomegalovirus (CMV) early promoter/enhancer region. The human P2X7R cDNA was inserted into the pcDNA3.1 vector (Invitrogen) and transfected into the mouse hippocampal cell line HT-22 using Lipofectamine (Invitrogen) according to the manufacturer's specifications. One day after transfection, culture medium containing 500 μg/ml G418 was added to the cells. Resistant clones were separately isolated and cultured 14 days after applying the selection medium.
The agonistic activity of a compound was evaluated by measuring calcium entry in the cells that overexpress the human P2X7R. Cells were cultured in 96 well plates and incubated at 37° C. with 5% C02 DMEM with 10% foetal calf serum (Gibco) until they reached confluence. Cells were then loaded for one hour with 10 μM of Fluo4 AM (Molecular Probes). Fluo-4 AM is a fluorescent dye that binds to intracellular calcium. […] Agonist activity was detected by measuring an increase in calcium influx which results in increased binding to Fluo4 AM and increased fluorescence. Changes in fluorescence signal are measured using a Fluostar Optima plate reader (BMG biotech). […] Thus, both compound stimulated the activity of P2X7R which results in an influx of ions into the cells.

mice = assay: Porsolt's forced swim test; type: in vivo, mouse; conditions: 50 μM BzATP, 1 μl each side intrahippocampal, 24 hours after injection, DBA/2OIa mice
Description: Further validation of role of P2X7R in affective disorders was performed by examining its expression pattern in response to stress and treatment with antidepressant drugs. […] In parallel, a control group of mice was given vehicle solution (i.e. without paroxetine) using the same treatment regiment while a second control group of mice was left undisturbed and stress-free (i.e. untreated) during the same period of the experiments. At the end of the long-term treatment, part of the mice of each experimental group were tested in the dark/light box (test of anxiety behaviour) and in the Porsolt's forced swim test (test of depressive-like behaviour) to confirm the effectiveness of the treatment (FIG. 5). […] The other part of the experimental groups (i.e. mice without test experience) were decapitated, brains rapidly removed and frozen at −80° C. until usage.
The effects of P2X7R inhibition on depressive-like behaviour was assessed 24 hours and 48 hours after infusion of siRNA, control or vehicle according to the standard test paradigm, the Porsolt's forced swim test (Porsolt et al., Arch. Int. Pharmacodym. 229 (1977), 327-336; Porsolt, Rev. Neurosci. 11 (2000), 53-58). […] Compared to vehicle application, no influence of control double stranded RNA (5′-[…]-3′) on floating behaviour (passive stress coping) was detected. […] This interpretation becomes moreover evident when the effects of antidepressants on passive stress coping behaviour in the forced swim test are visualized (FIG. 5). Passive stress coping behaviour increased after acute intrahippocampal injection (bilateral, dentate gyrus) of siRNA targeting P2X7R. The Porsolt's forced swim test is a standard test used to assess the effectiveness of antidepressants and it has been proven by many studies that the test is selectively sensitive for these effects, given that the right animal model is used. The paradigm has been widely used to test pharmaceutical compounds and to validate animal models of depression, which show an increase in passive behaviour as do the mice where P2X7R has been inhibited (siRNA).
The forced swim test is a standard test that measures primary stress-induced reductions in avoidance or escape, termed behavioural despair. The test is used to determine the effectiveness of antidepressants, test new pharmaceutical compounds and validate animal models of depression (Porsolt et al., Arch. Int. Pharmacodym. 229 (1977), 327-336; Porsolt, Rev. Neurosci. 11 (2000), 53-58; Rénéric et al., Behav. Brain Res. 136 (2002), 521-532; Page et al., Psychopharmacology 165 (2003), 194-201; Kelliher et al., Psychoneuroendocrinology 28 (2003), 332-347). The test consists of placing a mouse for a period of 5 minutes into a glass cylinder containing water. Under such circumstances, the mouse cannot touch the bottom of the cylinder and is thus forced to swim. Time, latency and frequency of struggling versus floating are scored as behavioural parameters. […] Increased struggling (i.e. active attempts to escape) indicates active coping behaviour that can be interpreted as an improvement of depression-like symptoms. For example, treatment with serotonergic antidepressants reduce the total time spent floating (Borsini, Neurosci. Biobehav. Rev. 19 (1995), 377-395; Redrobe and Bourin, Psychopharmacology 138 (1998), 198-206, and in parallel increases the time of active behaviour (i.e. swimming or struggling; Lucki et al., Psychopharmacology 155 (2001), 315-322).
The behaviour of individual mice was assessed using the Porsolt's forced swim test 24 hours after injection of vehicle solution, KN-62, or oATP. A pre-exposure of 5 minutes to the test was performed 15-17 minutes after administration of vehicle, KN-62, or oATP. A description of the Porsolt's forced swim test is given in example 9. […]

2′-3′-O-(4-Benzoylbenzoyl)adenosine 5′-triphosphate [BzATP]
calcium influx (Fluo-4 AM fluorescence intensity) (human P2X7R): rapid increase in fluorescence intensity | passive behaviour (time, frequency, latency of floating) in the forced swim test (mice; latency and frequency of floating statistically significant): decrease | active escape attempts (time, frequency, latency of struggling) in the forced swim test (mice; time struggling statistically significant): increase
